US10239843B2 (CANCER RESEARCH TECHNOLOGY LIMITED, priority 2014, dated 2019)
Like-named read-outs stand apart in the source and are kept apart here.

Tests used:
Human Full Length PARG = Human Full Length PARG (Homo sapiens (Human), UniProt Q86W56); test: PARG enzyme assay (TR-FRET); assay type: biochemical
Human Full Length ARH3 = Human Full Length ARH3 (Homo sapiens (Human), UniProt Q9NX46); test: ARH3 in vitro selectivity assay (TR-FRET); assay type: biochemical; details: read-out: ARH3 Biochem IC50
Description: ARH3 In vitro selectivity assays were conducted in a total volume of 15 ul in a standard 384 well format.

[1] = target: Human High specific Activity PARP1 (Homo sapiens (Human), UniProt P09874); test: PARP1 in vitro selectivity assay (histone PARylation, luminescence); assay type: biochemical; details: read-out: PARP1 Biochem IC50
Description: PARP1 In vitro selectivity assays were conducted as a 10 ul reaction volume in a NUNC Maxisorp 384-well assay plate pre-coated in-house with Histones. […] The wells were then washed with PBS/0.1% Triton X100. PARP1 activity was then detected by measuring the extent of PARylation. […] Luminescence signal was then measured immediately.

PARG in HeLa cell line = test: PARG cell assay (PAR chain immunofluorescence after MMS); assay type: cell-based; details: HeLa cells
Method in brief: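 HeLa cells were dosed with compound for 1 h, then given MMS at 50 μg/mL final for a further hour. Cells were methanol-fixed, permeabilised and stained overnight at 4° C with anti-PAR monoclonal antibody. Retained nuclear PAR chains, detected by indirect immunofluorescence, indicate PARG inhibition.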

[2] = read-out: PARG Biochem IC50 Geomean
[3] = MMS 50 μg/mL, read-out: PARG Cell IC50 Geomean
[4] = Homo sapiens, MMS 50 μg/mL, read-out: PARG Cell IC50 Geomean
[5] = Homo sapiens, MMS treatment, read-out: PARG Cell IC50
[6] = MMS treatment, read-out: PARG Cell IC50

Human Full Length ARH3, sequence (Q9NX46 whole entry): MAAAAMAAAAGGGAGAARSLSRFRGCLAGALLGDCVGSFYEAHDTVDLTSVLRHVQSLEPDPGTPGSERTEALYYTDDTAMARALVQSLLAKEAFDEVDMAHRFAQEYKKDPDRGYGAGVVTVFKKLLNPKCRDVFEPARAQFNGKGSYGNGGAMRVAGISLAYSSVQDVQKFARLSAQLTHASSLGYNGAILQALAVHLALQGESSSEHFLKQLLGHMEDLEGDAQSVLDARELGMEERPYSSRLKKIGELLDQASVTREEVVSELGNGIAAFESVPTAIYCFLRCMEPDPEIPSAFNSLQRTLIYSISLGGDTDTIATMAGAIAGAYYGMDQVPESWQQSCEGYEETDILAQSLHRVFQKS
Human High specific Activity PARP1, sequence (P09874 whole entry): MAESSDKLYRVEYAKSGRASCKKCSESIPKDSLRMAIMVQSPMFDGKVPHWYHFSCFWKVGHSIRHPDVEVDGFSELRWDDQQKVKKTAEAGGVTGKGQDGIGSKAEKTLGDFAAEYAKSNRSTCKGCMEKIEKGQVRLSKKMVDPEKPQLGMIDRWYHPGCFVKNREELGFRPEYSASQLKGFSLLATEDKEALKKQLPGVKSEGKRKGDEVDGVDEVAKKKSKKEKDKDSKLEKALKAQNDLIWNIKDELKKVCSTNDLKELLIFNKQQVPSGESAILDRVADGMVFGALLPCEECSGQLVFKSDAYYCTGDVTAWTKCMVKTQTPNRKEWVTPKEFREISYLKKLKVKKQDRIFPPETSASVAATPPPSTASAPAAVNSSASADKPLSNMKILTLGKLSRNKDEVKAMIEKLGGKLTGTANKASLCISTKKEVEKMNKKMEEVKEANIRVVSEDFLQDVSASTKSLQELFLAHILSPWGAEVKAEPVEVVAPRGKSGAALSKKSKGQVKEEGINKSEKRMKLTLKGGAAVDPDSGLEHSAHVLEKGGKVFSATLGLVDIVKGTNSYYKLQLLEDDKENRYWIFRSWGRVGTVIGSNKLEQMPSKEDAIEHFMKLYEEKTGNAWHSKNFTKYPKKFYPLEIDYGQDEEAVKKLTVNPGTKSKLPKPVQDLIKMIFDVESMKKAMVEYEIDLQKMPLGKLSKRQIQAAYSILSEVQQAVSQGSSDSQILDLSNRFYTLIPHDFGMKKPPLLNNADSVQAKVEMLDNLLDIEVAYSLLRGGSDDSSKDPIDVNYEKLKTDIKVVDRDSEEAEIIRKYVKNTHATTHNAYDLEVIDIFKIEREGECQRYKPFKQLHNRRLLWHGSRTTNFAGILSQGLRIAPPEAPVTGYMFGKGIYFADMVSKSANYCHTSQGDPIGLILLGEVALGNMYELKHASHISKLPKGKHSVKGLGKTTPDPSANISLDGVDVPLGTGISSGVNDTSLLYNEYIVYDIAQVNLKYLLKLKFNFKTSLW
Human Full Length PARG, sequence (Q86W56 whole entry): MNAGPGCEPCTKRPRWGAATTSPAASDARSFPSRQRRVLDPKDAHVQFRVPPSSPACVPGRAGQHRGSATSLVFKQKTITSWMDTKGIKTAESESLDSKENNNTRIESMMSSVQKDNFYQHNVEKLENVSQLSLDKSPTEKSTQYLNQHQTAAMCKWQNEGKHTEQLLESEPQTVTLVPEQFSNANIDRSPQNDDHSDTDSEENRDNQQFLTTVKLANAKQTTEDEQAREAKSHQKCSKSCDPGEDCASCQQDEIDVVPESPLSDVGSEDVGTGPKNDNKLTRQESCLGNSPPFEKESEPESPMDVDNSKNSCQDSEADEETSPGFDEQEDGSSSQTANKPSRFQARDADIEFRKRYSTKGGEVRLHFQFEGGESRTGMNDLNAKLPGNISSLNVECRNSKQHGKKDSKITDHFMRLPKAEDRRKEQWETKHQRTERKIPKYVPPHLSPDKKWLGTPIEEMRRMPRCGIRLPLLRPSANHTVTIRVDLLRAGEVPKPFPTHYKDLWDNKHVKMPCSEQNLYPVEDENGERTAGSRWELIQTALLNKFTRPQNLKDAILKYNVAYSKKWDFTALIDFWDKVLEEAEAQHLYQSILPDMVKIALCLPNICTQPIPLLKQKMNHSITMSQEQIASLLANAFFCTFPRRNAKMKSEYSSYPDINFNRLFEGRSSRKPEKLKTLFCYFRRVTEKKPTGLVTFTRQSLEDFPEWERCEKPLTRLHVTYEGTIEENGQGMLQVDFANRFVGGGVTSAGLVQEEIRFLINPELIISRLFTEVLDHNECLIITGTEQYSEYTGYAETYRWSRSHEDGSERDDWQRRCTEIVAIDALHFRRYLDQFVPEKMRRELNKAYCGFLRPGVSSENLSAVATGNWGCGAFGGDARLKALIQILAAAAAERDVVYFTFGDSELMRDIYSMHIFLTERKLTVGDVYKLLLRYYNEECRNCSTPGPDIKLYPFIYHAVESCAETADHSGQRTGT

Row | Compound | IC50 (Human Full Length PARG; [2]) [nM] | IC50 (Human Full Length ARH3) [nM] | IC50 [1] [nM] | IC50 (PARG in HeLa cell line; [3]) [nM] | IC50 (PARG in HeLa cell line; [4]) [nM] | IC50 (Human Full Length PARG; read-out: PARG Biochem IC50) [nM] | IC50 (PARG in HeLa cell line; [5]) [nM] | IC50 (PARG in HeLa cell line; [6]) [nM]
1 | Cn1c(=O)c(=O)n(CC2CC2)c2ccc(S(=O)(=O)NC3(C)CC3)cc21 [Example 22, 1-(Cyclopropylmethyl)-4-methyl-N-(1-methylcyclopropyl)-2,3-dioxo-quinoxaline-6-sulfonamide] | 1020 | > 150000 | > 150000 | – | – | – | – | –
2 | CNc1nc2ccc(S(=O)(=O)NC3(C)CC3)cc2n(C)c1=O [Example 41, 4-Methyl-2-(methylamino)-N-(1-methylcyclopropyl)-3-oxo-quinoxaline-6-sulfonamide] | 5550 | > 150000 | > 150000 | – | – | – | – | –
3 | Cn1c(C2CC2)nc2ccc(S(=O)(=O)NC3(C)CC3)cc2c1=O [Example 80] | 2180 | > 150000 | > 150000 | – | – | – | – | –
4 | CC1(NS(=O)(=O)c2ccc3nc(N4CCCC4)[nH]c(=O)c3c2)CC1 [Example 98] | 9440 | > 150000 | > 150000 | – | – | – | – | –
5 | Cc1nc(C)c(Cn2c(=O)n(C)c(=O)c3cc(S(=O)(=O)NC4(C)CC4)ccc32)s1 [Example 133] | 184 | > 100000 | > 150000 | 124 | – | – | – | –
6 | Cc1ncc(Cn2c(=O)c3cc(S(=O)(=O)NC4(C)CC4)ccc3n(CC3CC3)c2=O)s1 [Example 156] | 19 | > 100000 | > 150000 | – | 28 | – | – | –
7 | Cc1noc(C)c1Cn1c(=O)c2cc(S(=O)(=O)NC3(C)CC3)ccc2n(CC2CC2)c1=O [Example 158] | 92 | > 100000 | > 150000 | 88 | – | – | – | –
8 | C#CCn1c(=O)n(Cc2cnc(C)s2)c(=O)c2cc(S(=O)(=O)NC3(C)CC3)ccc21 [Example 161] | 45 | > 100000 | > 150000 | 82 | – | – | – | –
9 | Cc1ncc(Cn2c(=O)c3cc(S(=O)(=O)NC4(C)CC4)ccc3n(Cc3sc(C)nc3C)c2=O)s1 [Example 162] | 4 | > 100000 | > 150000 | 9 | – | – | – | –
10 | Cc1nc(C)c(Cn2c(=O)n(Cc3c(C)noc3C)c(=O)c3cc(S(=O)(=O)NC4(C)CC4)ccc32)s1 [Example 165] | 33 | > 100000 | > 150000 | – | 63 | – | – | –
11 | Cc1cc(Cn2c(=O)n(Cc3cnn(C)c3)c(=O)c3cc(S(=O)(=O)NC4(C)CC4)ccc32)n(C)n1 [Example 173] | 18 | > 150000 | > 150000 | 88 | – | – | – | –
12 | Cc1cc(Cn2c(=O)c3cc(S(=O)(=O)NC4(C)CC4)ccc3n(C)c2=O)on1 [Example 180] | 426 | > 150000 | > 150000 | – | 460 | – | – | –
13 | Cc1cc(Cn2nc(Cc3ccccc3)c3ccc(S(=O)(=O)NC4(C)CC4)cc3c2=O)on1 [Example 298] | 648 | > 150000 | > 150000 | – | – | – | – | –
14 | Cc1cc(Cn2nc(CC3CCOCC3)c3ccc(S(=O)(=O)NC4(C)CC4)cc3c2=O)on1 [Example 308] | 274 | > 150000 | > 150000 | 201 | – | – | – | –
15 | Cc1cc(Cn2cc(C(=O)C3CC3)c3ccc(S(=O)(=O)NC4(C)CC4)cc3c2=O)on1 [Example 311, 4-(Cyclopropanecarbonyl)-N-(1-methylcyclopropyl)-2-[(3-methylisoxazol-5-yl)methyl]-1-oxo-isoquinoline-7-sulfonamide] | 549 | > 150000 | > 150000 | – | – | – | – | –
16 | Cc1nc(C)c(Cn2c(=O)n(Cc3cnn(C)c3)c(=O)c3cc(S(=O)(=O)NC4(CF)CC4)ccc32)s1 [Example 463, 1-[(2,4-Dimethylthiazol-5-yl)methyl]-N-[1-(fluoromethyl)cyclopropyl]-3-[(1-methylpyrazol-4-yl)methyl]-2,4-dioxo-quinazoline-6-sulfonamide] | – | > 150000 | > 150000 | – | – | 6 | 9 | –

Row | Compound | IC50 (Human Full Length PARG; [2]) [nM] | IC50 (Human Full Length ARH3) [nM] | IC50 [1] [nM] | IC50 (PARG in HeLa cell line; [3]) [nM] | IC50 (PARG in HeLa cell line; [4]) [nM] | IC50 (Human Full Length PARG; read-out: PARG Biochem IC50) [nM] | IC50 (PARG in HeLa cell line; [5]) [nM] | IC50 (PARG in HeLa cell line; [6]) [nM]
17 | Cc1ncsc1Cn1c(=O)n(Cc2cnn(C)c2)c(=O)c2cc(S(=O)(=O)NC3(CF)CC3)ccc21 [Example 572, N-[1-(Fluoromethyl)cyclopropyl]-3-[(1-methylpyrazol-4-yl)methyl]-1-[(4-methylthiazol-5-yl)methyl]-2,4-dioxo-quinazoline-6-sulfonamide] | – | > 150000 | – | – | – | 7 | – | –
18 | Cn1cc(Cn2c(=O)c3cc(S(=O)(=O)NC4(CF)CC4)ccc3n(Cc3ccns3)c2=O)cn1 [Example 578, N-[1-(Fluoromethyl)cyclopropyl]-1-(isothiazol-5-ylmethyl)-3-[(1-methylpyrazol-4-yl)methyl]-2,4-dioxo-quinazoline-6-sulfonamide] | – | > 150000 | – | – | – | 10 | – | –
19 | Cc1oncc1Cn1c(=O)n(Cc2cnn(C)c2)c(=O)c2cc(S(=O)(=O)NC3(CF)CC3)ccc21 [Example 579, N-[1-(Fluoromethyl)cyclopropyl]-1-[(5-methylisoxazol-4-yl)methyl]-3-[(1-methylpyrazol-4-yl)methyl]-2,4-dioxo-quinazoline-6-sulfonamide] | – | > 150000 | – | – | – | 9 | – | –
20 | CCn1c(=O)n(Cc2nnc(C)s2)c(=O)c2cc(S(=O)(=O)NC3(C)CC3)ccc21 [Example 614, 1-Ethyl-N-(1-methylcyclopropyl)-3-[(5-methyl-1,3,4-thiadiazol-2-yl)methyl]-2,4-dioxo-quinazoline-6-sulfonamide] | – | > 150000 | – | – | – | 239 | – | 122
21 | Cc1cc(Cn2c(=O)c3cc(S(=O)(=O)NC4(CF)CC4)ccc3n(Cc3sc(C)nc3C)c2=O)on1 [Example 616, 1-[(2,4-Dimethylthiazol-5-yl)methyl]-N-[1-(fluoromethyl)cyclopropyl]-3-[(3-methylisoxazol-5-yl)methyl]-2,4-dioxo-quinazoline-6-sulfonamide] | – | > 150000 | – | – | – | 17 | 25 | –
22 | CCCCn1c(=O)n(Cc2cnn(C)c2)c(=O)c2cc(S(=O)(=O)NC3(CF)CC3)ccc21 [Example 617, 1-Butyl-N-[1-(fluoromethyl)cyclopropyl]-3-[(1-methylpyrazol-4-yl)methyl]-2,4-dioxo-quinazoline-6-sulfonamide] | – | > 150000 | – | – | – | 39 | 37 | –
23 | Cn1cc(Cn2c(=O)c3cc(S(=O)(=O)NC4(CF)CC4)ccc3n(CC(F)(F)F)c2=O)cn1 [Example 623, N-[1-(Fluoromethyl)cyclopropyl]-3-[(1-methylpyrazol-4-yl)methyl]-2,4-dioxo-1-(2,2,2-trifluoroethyl)quinazoline-6-sulfonamide] | – | – | – | – | – | 2670 | 10000 | –
24 | Cn1c(=O)n(Cc2nncs2)c(=O)c2cc(S(=O)(=O)NC3(CF)CC3)ccc21 [Example 624, N-[1-(Fluoromethyl)cyclopropyl]-1-methyl-2,4-dioxo-3-(1,3,4-thiadiazol-2-ylmethyl)quinazoline-6-sulfonamide] | – | – | – | – | – | 1040 | 4350 | –
25 | Cc1cc(Cn2c(=O)c3cc(S(=O)(=O)NC4(CF)CC4)ccc3n(C)c2=O)sn1 [Example 625, N-[1-(Fluoromethyl)cyclopropyl]-1-methyl-3-[(3-methylisothiazol-5-yl)methyl]-2,4-dioxo-quinazoline-6-sulfonamide] | – | > 150000 | – | – | – | 597 | 730 | –
26 | Cn1ncc(Cn2c(=O)c3cc(S(=O)(=O)NC4(CF)CC4)ccc3n(C)c2=O)n1 [Example 626, N-[1-(Fluoromethyl)cyclopropyl]-1-methyl-3-[(2-methyltriazol-4-yl)methyl]-2,4-dioxo-quinazoline-6-sulfonamide] | – | – | – | – | – | 3160 | – | 1810
27 | Cc1cc(Cn2c(=O)c3cc(S(=O)(=O)NC4(CF)CC4)ccc3n(Cc3nncs3)c2=O)on1 [Example 627, N-[1-(Fluoromethyl)cyclopropyl]-3-[(3-methylisoxazol-5-yl)methyl]-2,4-dioxo-1-(1,3,4-thiadiazol-2-ylmethyl)quinazoline-6-sulfonamide] | – | – | – | – | – | 159 | 351 | –
28 | CCc1nnc(Cn2c(=O)c3cc(S(=O)(=O)NC4(CF)CC4)ccc3n(C)c2=O)s1 [Example 628, 3-[(5-Ethyl-1,3,4-thiadiazol-2-yl)methyl]-N-[1-(fluoromethyl)cyclopropyl]-1-methyl-2,4-dioxo-quinazoline-6-sulfonamide] | – | – | – | – | – | 2690 | 736 | –
29 | Cc1nnc(Cn2c(=O)c3cc(S(=O)(=O)NC4(CF)CC4)ccc3n(CCF)c2=O)s1 [Example 629, 1-(2-Fluoroethyl)-N-[1-(fluoromethyl)cyclopropyl]-3-[(5-methyl-1,3,4-thiadiazol-2-yl)methyl]-2,4-dioxo-quinazoline-6-sulfonamide] | – | > 150000 | – | – | – | 82 | 226 | –
30 | Cc1nnc(Cn2c(=O)c3cc(S(=O)(=O)NC4(CF)CC4)ccc3n(Cc3cnn(C)c3)c2=O)s1 [Example 630, N-[1-(Fluoromethyl)cyclopropyl]-1-[(1-methylpyrazol-4-yl)methyl]-3-[(5-methyl-1,3,4-thiadiazol-2-yl)methyl]-2,4-dioxo-quinazoline-6-sulfonamide] | – | > 150000 | – | – | – | 16 | – | 542
31 | Cc1nc(Cn2c(=O)n(Cc3nnc(C)s3)c(=O)c3cc(S(=O)(=O)NC4(CF)CC4)ccc32)no1 [Example 631, N-[1-(Fluoromethyl)cyclopropyl]-1-[(5-methyl-1,2,4-oxadiazol-3-yl)methyl]-3-[(5-methyl-1,3,4-thiadiazol-2-yl)methyl]-2,4-dioxo-quinazoline-6-sulfonamide] | – | > 150000 | – | – | – | 121 | 706 | –
